Here are results for two molecules from patent US5962640A, “Methods for preparing novel dipeptide compounds or pharmacuetically acceptable salts thereof” (Japan Energy Corporation, priority 1995, dated 1999).

The subject of one data set is MT-4 cell line. The data set is described as follows: Cytotoxicity to non-infected MT-4 cell line, MTT method. Format: cell-based. Particulars: non-infected MT-4 cells, 5 day culture. Here is the method:
According to a test method which was already reported in publications (H.Nakashima et al., Antimicrob. Agents Chemother.36, 1249-1255 (1992), etc.,), anti-HIV activity was evaluated, by using MT-4 cell line and HTLV-IIIB virus, MT-4 cells (2.5×10^4 well, MOI:001) infected with said HTLV-IIIB virus just before the addition were into 96-well microtiter plate wherein each well contained various concentration of tested compound. At the same time, in order to investigate cytotoxicity of tested compounds to MT-4 cell line, non-infected MT-4 cell line was cultured in the presence of various kinds of tested compound. After 5 day culture at 37° C. in a CO2 incubator, the number of vial cells was counted by MTT method. […]
In general terms: Formazan colour is commonly taken as a measure of viable cells.

The nature of data set [1]: Pharmacokinetics in rats, intravenous or intraduodenal administration, plasma concentration. Format: in vivo. Particulars: 10.0 mg/kg. How it is done: Metabolic characteristics of the dipeptide compounds of the present invention was evaluated using rats. Tested compounds dissolved in vehicle was administered intraduodenally or intravenously. After administration, blood was taken and the concentration of residual tested compound in plasma was analyzed. The dosage of the tested compound was described in table 3.

The next data set relates to HTLV-IIIB virus. The data set is described as follows: Anti-HIV activity: protection of HTLV-IIIB infected MT-4 cells, MTT method. Format: cell-based. To be noted: Human immunodeficiency virus 1, MT4, 120 h; MT-4 cells infected with HTLV-IIIB, 5 day culture. Here is the method:
The anti-HIV activity of the dipeptide compound of the present invention was evaluated as described below. That is, the inhibitory action of the compound on formation of HIV virus particles which infects T lymphocyte was evaluated by potency to prevent death of T lymphocyte accompanied by said virus infection.
According to a test method which was already reported in publications (H.Nakashima et al., Antimicrob. Agents Chemother.36, 1249-1255 (1992), etc.,), anti-HIV activity was evaluated, by using MT-4 cell line and HTLV-IIIB virus, MT-4 cells (2.5×10^4 well, MOI:001) infected with said HTLV-IIIB virus just before the addition were into 96-well microtiter plate wherein each well contained various concentration of tested compound. At the same time, in order to investigate cytotoxicity of tested compounds to MT-4 cell line, non-infected MT-4 cell line was cultured in the presence of various kinds of tested compound. After 5 day culture at 37° C. in a CO2 incubator, the number of vial cells was counted by MTT method.
Virus whose infectious value was 3.8×10^4 TCID 50/ml was used.

A further data set concerns the target T1, Recombinant HIV protease (Human immunodeficiency virus type 1 group M subtype B, UniProt P04585).
T1 construct: Recombinant HIV protease
The data set can be described thus: HIV protease inhibitory activity (cleavage of synthetic hepta-peptide, HPLC). Format: biochemical. Particulars: for inhibition at 0.05 µM: concentration 50 nM (final), 37° C., 60 min; for inhibition at 5 µM: read-out: HIV protease inhibitory activity (%). How it is done: Recombinant HIV protease (Biochemistry, 250 (9), 264 (1990)) and synthetic hepta-peptide (H-Ser-Gln-Asn-Tyr-Pro-Ile-Val-OH/trifluoroacetic acid salt) were used for assay of protease activity. Peptide fragment H-Pro-Ile-Val-OH formed by cleavage between -Tyr . . . Pro of said substrate after a reaction in the presence of various concentration of tested compound at 37° C. for 60 min. was determined by reversed phase HPLC and the inhibitory rate was calculated (referred to Japanese laid-open unexamined patent, No. 170722/1993).
The concentration of tested compound represents the final concentration thereof of the reaction mixture.

The EC50 is the midpoint of the concentration-response curve. A word on the MRT: it is a mean duration of stay, worked out from the concentration-time curve.

The structures appear in SMILES notation. Converted amounts (≈) assume the structure as drawn.

For the molecule `Cc1ccccc1CNC(=O)[C@@H]1CSCN1C(=O)[C@@H](O)[C@H](Cc1ccccc1)NC(=O)c1cccc(O)c1C` [Compound of example 34, (R)-N-(2-methylbenzyl)-3-[(2S,3S)-3-(3-hydroxy-2-methylbenzoyl)amino-2-hydroxy-4-phenylbutanoyl]-1,3-thiazolidine-4-carboxamide], in the data set with MT-4 cell line, the “Cytotoxicity CC50” value stood at 24.5 mg/L. In addition, the AUC in data set [1] (i.d.) was determined as 40 µg/mL/min. In data set [1] (i.v.), the AUC was determined as 124 µg/mL/min. Also, the EC50 with HTLV-IIIB virus was 5.35 mg/L (≈ 9.77 µM). At Recombinant HIV protease, the inhibition at 0.05 µM was 69.8% and the inhibition at 5 µM turned out to be 96.7%.
With `CCc1c(O)cccc1C(=O)N[C@@H](Cc1ccccc1)[C@H](O)C(=O)N1CSC[C@H]1C(=O)NC(C)(C)C` [Compound of example 31, (R)-N-tert-butyl-3-[(2S,3S)-2-hydroxy-3-(2-ethyl-3-hydroxybenzoyl)amino-4-phenylbutanoyl]-1,3-thiazolidine-4-carboxamide], in the data set on MT-4 cell line, the “Cytotoxicity CC50” value is 168 mg/L. In data set [1] (i.d.), this molecule had an AUC of 99 µg/mL/min. In data set [1] (i.v.), this molecule returned an AUC of 276 µg/mL/min and a mean residence time (MRT) of 1.6 h. Moreover, in the data set with HTLV-IIIB virus, the EC50 was determined as 1.46 mg/L (≈ 2.84 µM). On Recombinant HIV protease, the inhibition at 0.05 µM amounted to 45.6% and the inhibition at 5 µM is 97.5%.
